Entries after “also recorded” stand apart in the source; their conditions may differ.
Tests used:
[1] = PK study, single PO dose, rats; format: in vivo; conditions: Sprague-Dawley, rat, plasma, male SD rats; for half-life: read-out: T½ (converted)
Method: A single PO dose of Compound A in three different formulations were administered to male Sprague-Dawley (SD) rats. Animals in Group 1 (Solution) received Compound A by oral gavage (PO) administration at 30 mg/kg, which was formulated in 4% NMP, 20% Capmul MCM, 21% Vitamin E TPGS, 55% PEG400. Animals in Group 2 (Suspension A) received Compound A by oral gavage (PO) administration at 100 mg/kg, which was formulated in SDD formulation with HPMCAS-H in 0.5% Methocel A4M in water. Mean plasma of Compound A was measured over 24-hour period after administration of Compound A (FIG. 15A) and PK parameters were determined (Table 29).

[2] = Phase I clinical study, safety (DLT); format: in vivo, human
Method: (§1) Phase I clinical research study of Compound A is studied as a treatment for patients with prostate cancer. All patients in the study receives Compound A at a once daily oral dose of 200 mg, 400 mg, 600 mg, 800 mg, or 1000 mg. Compound A in this study is provided as an SDD composition with HPMCAS-H. One cycle of treatment is 28 days of dosing.
The primary safety variable for Part 1a of the study is the incidence of protocol-defined dose limiting toxicity (DLT) during the DLT assessment period (first 28 days of dosing). The DLTs will be characterized by type, frequency, severity (as graded by National Cancer Institute Common Terminology Criteria for AEs [NCI CTCAE version 5.0]), timing, seriousness, and relationship to study drug.

LNCaP95 = LNCaP95 prostate cancer xenograft model; format: in vivo; conditions: LNCaP95 (high level AR-V7), castrated male mice, 30 mg/kg, Solution, qd24
Method: (§2) Compound A's activity was measured in a variety of castrate-sensitive and castrate-resistant prostate cancer (CRPC) xenograft models (Table 32).

VCaP tumors = test: VCaP prostate cancer xenograft model; format: in vivo, SCID Beige male mice; conditions: VCaP (amplified AR, some AR-V7), castrated male mice, Solution, qd24
22Rv1 = 22Rv1 prostate cancer xenograft model; format: in vivo; conditions: 22Rv1 (high level AR-V7), castrated male mice, 30 mg/kg, Solution, qd28
Method: as §2

[3] = PK study, single PO dose, mice; format: in vivo; conditions: male, CD-1, mouse, plasma, male CD-1 mice
Method: A single PO dose of Compound A in different doses in solid dispersion and at 30 mg/kg dose of Compound A in solution were administered to male CD-1 mice. Mean plasma of Compound A was measured over 24 hour period after administration of Compound A (FIG. 15C) and PK parameters were determined (Table 31).

[4] = system: serum prostate specific antigen (PSA); test: Phase I clinical study, serum PSA; format: in vivo, human; conditions: 200 mg/day
Method: as §1
The primary efficacy variable for Part 1b of the study is the proportion of patients with a decline from baseline in prostate specific antigen (PSA) blood concentrations of ≥50% at any time point during daily dosing with Compound A,
The study is still on-going with other dose levels.

HID28 = test: Enzalutamide resistant patient-derived xenograft (PDX) model HID28; format: in vivo, nude mice; conditions: HID28 PDX (AR+ PSA+), castrated male mice, 60 mg/kg, SDD, qd28
Method: as §2
For example, intact male nude mice were engrafted with HID28 tumor fragments and once tumors reached ˜150 mm^3 the mice were castrated. The mice were enrolled in the experiment once the tumors started to regrow, 10 days post-castration. Compound A was tested in the HID28 PDX model at 60 mg/kg, QD for 28 days using SDD formulation with HPMCAS-H in 0.5% Methocel A4M in water.
Mean tumor volume in castrated nude mice bearing enzalutamide resistant patient-derived xenograft (PDX) model HID28 was measured after oral treatment with solid dispersion composition of Compound A or enzalutamide for 28 days (n=6-7 per group) is shown in FIG. 16B.

PC-3 = PC-3 prostate cancer xenograft model; format: in vivo; conditions: PC-3 (non functional AR), intact male mice, 30 mg/kg, Solution, qd28
Method: as §2

[5] = PK study, single PO dose, dogs; format: in vivo; conditions: male, Beagle, dog, plasma; for half-life: read-out: T½ (converted)
Method: A single PO dose of Compound A in two different formulations were administered to male Beagle dogs. Mean plasma of Compound A was measured over 24-hour period after administration of Compound A (FIG. 15B) and PK parameters were determined (Table 30).

[6] = PO 30 mg/kg, Solution (4% NMP, 20% Capmul MCM, 21% Vitamin E TPGS, 55% PEG400)
[7] = PO 100 mg/kg, Suspension A (SDD with HPMCAS-H in 0.5% Methocel A4M in water)
[8] = 3 subjects, 28 day dosing at 200 mg/day
[9] = 10 mg/kg, PO 10 mg/kg, Suspension A (SDD)
[10] = 30 mg/kg, PO 30 mg/kg, Solution (9% DMSO, 9% NMP, 27% solutol, 55% PEG400)
[11] = 30 mg/kg, PO 30 mg/kg, Suspension A (SDD)
[12] = 90 mg/kg, PO 90 mg/kg, Suspension A (SDD)
[13] = 270 mg/kg, PO 270 mg/kg, Suspension A (SDD)
[14] = 50 mg/kg, PO 50 mg/kg, Solution (5% NMP, 20% vitamin E TPGS, 20% PEG 300, 0.5% SLS, 1.09% HPMCAS-H, 53.91% water)
[15] = 50 mg/kg, PO 50 mg/kg, Suspension A (SDD)
[16] = 100 mg/kg, PO 100 mg/kg, Suspension A (SDD)

## CC(C)(c1ccc(OCc2ccnc(NS(C)(=O)=O)n2)cc1)c1cc(Cl)c(OCCCl)c(C#N)c1 [Compound A, N-(4-((4-(2-(3-chloro-4-(2-chloroethoxy)-5-cyanophenyl)propan-2-yl)phenoxy)methyl)pyrimidin-2-yl)methanesulfonamide]
[1]; [6]
  AUC(0-t): 399 µg·h/mL
  Cmax: 26.8 µg/mL
  Tmax: 9.3 h
  half-life: 7.6 h
[1]; [7]
  AUC(0-t): 1180 µg·h/mL
  Cmax: 89.8 µg/mL
  Tmax: 5.3 h
  half-life: 6.2 h
[2]; 200 mg/day
  tolerability: well tolerated
[2]; [8]
  dose limiting toxicity (DLT): No DLTs were observed; also recorded: No dose limiting toxicity was observed
  severe adverse events: no severe adverse events were observed
LNCaP95
  TGI (Tumor Growth Inhibition): 54%
VCaP tumors; 3 mg/kg
  TGI (Tumor Growth Inhibition): 54%
VCaP tumors; 10 mg/kg
  TGI (Tumor Growth Inhibition): 95%
VCaP tumors; 30 mg/kg
  TGI (Tumor Growth Inhibition): >100%
22Rv1
  TGI (Tumor Growth Inhibition): 48%
[3]; [9]
  AUC(0-inf): 189 µg·h/mL
  AUC(0-t): 177 µg·h/mL
  Cmax: 14.3 µg/mL
[3]; [10]
  AUC(0-inf): 352 µg·h/mL
  AUC(0-t): 336 µg·h/mL
  Cmax: 32 µg/mL
[3]; [11]
  AUC(0-inf): 604 µg·h/mL
  AUC(0-t): 565 µg·h/mL
  Cmax: 45.9 µg/mL
[3]; [12]
  AUC(0-inf): 1700 µg·h/mL
  AUC(0-t): 1570 µg·h/mL
  Cmax: 110 µg/mL
[3]; [13]
  AUC(0-inf): 2690 µg·h/mL
  AUC(0-t): 2310 µg·h/mL
  Cmax: 162 µg/mL
[4]; one subject, after 3 cycles (12 weeks)
  Serum PSA level decline: > 50%
[4]; two other subjects
  Serum PSA levels: showed increase
HID28
  TGI (Tumor Growth Inhibition): 58%
PC-3
  TGI (Tumor Growth Inhibition): 0%
[5]; [14]
  AUC(0-t): 648 µg·h/mL
  Cmax: 45.8 µg/mL
  Tmax: 2 h
  half-life: 21.9 h
[5]; [15]
  AUC(0-t): 845 µg·h/mL
  Cmax: 55.5 µg/mL
  Tmax: 3.3 h
  half-life: 16.2 h
[5]; [16]
  AUC(0-t): 1450 µg·h/mL
  Cmax: 80.6 µg/mL
  Tmax: 5.3 h
  half-life: 24 h

Reference: US20240207264A1, “PHARMACEUTICAL COMPOSITIONS COMPRISING INHIBITORS OF THE ANDROGEN RECEPTOR AND USES THEREOF” (ESSA PHARMA INC., priority 2021, published 2024)
